Laboratory results reported in ChEMBL document CHEMBL1201862, “PubChem BioAssay data set” (2004).
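Tested at 5 concentrations; 48 h exposure; 96-well plates; endpoints linearly interpolated, else capped at highest concentration. The concentration for 50% growth inhibition is given as GI50.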 The source made the active and inactive calls. Rule as the data show it: active = GI50 up to about 1.1 µM and inactive = higher.

Assays:
Experiment in all cases: NCI anticancer screen, dose series, 48 h
[1] = tested on: LOX IMVI
[2] = tested on: Hs-578T
[3] = tested on: T47D
[4] = tested on: UACC-62
[5] = tested on: HOP-92
[6] = tested on: MCF7
[7] = tested on: SK-MEL-28
[8] = tested on: HOP-62
[9] = tested on: RXF 393
[10] = tested on: NCI-H226
[11] = tested on: MDA-N
[12] = tested on: K562
[13] = tested on: IGROV-1
[14] = tested on: A549
[15] = tested on: KM12
[16] = tested on: SF-268
[17] = tested on: EKVX
[18] = tested on: 786-0
[19] = tested on: MDA-MB-435
[20] = tested on: NCI-H23

Structure (SMILES): C=CCSS/C=C/C[S+]([O-])CC=C (stereo not given) [AJOENE]
- GI50 [1]: 14600 nM (inactive)
- GI50 [2]: 26400 nM (inactive)
- GI50 [3]: > 56100 nM (inactive)
- GI50 [4]: 36300 nM (inactive)
- GI50 [5]: 48300 nM (inactive)
- GI50 [6]: 44200 nM (inactive)
- GI50 [7]: 20700 nM (inactive)
- GI50 [8]: > 100000 nM (inactive)
- GI50 [9]: 24900 nM (inactive)
- GI50 [10]: 41300 nM (inactive)
- GI50 [11]: 18800 nM (inactive)
- GI50 [12]: 5830 nM (inactive)
- GI50 [13]: 43400 nM (inactive)
- GI50 [14]: 61000 nM (inactive)
- GI50 [15]: 57800 nM (inactive)
- GI50 [16]: 25000 nM (inactive)
- GI50 [17]: > 100000 nM (inactive)
- GI50 [18]: 18300 nM (inactive)
- GI50 [19]: 18200 nM (inactive)
- GI50 [20]: 46600 nM (inactive)

Structure (SMILES): C[C@@H]1C[C@@H](O)[C@]2(O)O[C@@H]3C[C@@]4(C=O)[C@@H](CC[C@@H]5[C@@H]4CC[C@]4(C)[C@@H](C6=CC(=O)OC6)CC[C@]54O)C[C@H]3O[C@@H]2O1 [CALACTIN]
- GI50 [1]: 14.8 nM (active)
- GI50 [2]: 20.2 nM (active)
- GI50 [3]: 46.9 nM (active)
- GI50 [4]: 16 nM (active)
- GI50 [5]: 27.6 nM (active)
- GI50 [6]: 33.5 nM (active)
- GI50 [7]: 28.8 nM (active)
- GI50 [8]: 6.71 nM (active)
- GI50 [9]: 19.4 nM (active)
- GI50 [10]: 24.3 nM (active)
- GI50 [11]: 53.8 nM (active)
- GI50 [12]: 17.9 nM (active)
- GI50 [13]: 9.62 nM (active)
- GI50 [14]: 4.39 nM (active)
- GI50 [15]: 22.6 nM (active)
- GI50 [16]: 2.31 nM (active)
- GI50 [17]: 24.4 nM (active)
- GI50 [18]: 6.17 nM (active)
- GI50 [19]: 44.1 nM (active)
- GI50 [20]: 2.22 nM (active)
